Results: patent US20260055118A1, “VISIBLE LIGHT SENSITIVE PHOTOREMOVABLE PROTECTING GROUPS, PREPARATION PROCESS THEREOF, PHOTOACTIVATABLE CONJUGATES COMPRISING THEM AND USES THEREOF” (HUN-REN TERMÉSZETTUDOMÁNYI KUTATÓKÖZPONT, priority 2022, published 2026)

Experiments:
[1] = Spectroscopic properties of the target conjugates in PBS; type: physicochemical; details: for ε (molar absorption coefficient): at the absorption maximum
Method: All starting materials were obtained from commercial suppliers and used without further purification. Analytical thin-layer chromatography (TLC) was performed on silica gel 60 F254 precoated aluminum TLC plates from Merck. Flash column chromatography was performed on Teledyne Isco CombiFlash® Rf+ automated flash chromatographer with silica gel (25-40 μm) from Zeochem. NMR spectra were recorded on a Varian Inova 500 MHz spectrometer. Chemical shifts (δ) are given in parts per million (ppm) using solvent signals or TMS as the reference. Coupling constants (J) are reported in Hertz (Hz). Analytical RP-HPLC-UV/Vis-MS measurements were employed using a Shimadzu LCMS-2020 instrument applying a Gemini C18 column (100×2.00 mm I.D.) in which the stationary phase is […] with a pore size of 110 Å. The chromatograms were detected by a UV-Vis diode array (190-800 nm) and an ESI-MS detector. The following linear gradient elution profile was applied, 0 min 0% B; 6.5 min 100% B; 7 min 0% B; 8 min. 0% B) with eluent A (2% HCOOH, 5% MeCN and 93% water) and B (2% HCOOH, 80% MeCN and 18% water) at a flow rate of 1.0 mL min-1 at 30° C. The samples were dissolved in MeCN—water mixtures. Spectroscopic measurements were performed on a Jasco FP 8300 spectrofluorometer. Quartz cuvettes with path length of 1 cm were used.
The spectroscopic properties of the target conjugates were determined in PBS. […] Compounds with Q=O have absorption bands in the green-yellow region while Q=CMe2 derivatives absorb in the red (up to 700 nm). All of the compounds have moderate to high absorption coefficients and significant fluorescence. The spectroscopic details can be found in Table 1. In the table, λmax means absorption maximum; λem means fluorescence emission maximum; s means molar absorption coefficient (at the absorption maximum).

[2] = Uncaging experiments, LED irradiation followed by HPLC-UV-MS; type: physicochemical; details: green light, 60 s
Method: The uncaging experiments were performed using green (4 W input power, λmax=549 nm half-width: 16 nm, output power: 72 mW), orange (4 W input power, λmax=605 nm half-width: 10 nm, output power: 140 mW) and red (4 W input power, λmax=658 nm half-width: 10 nm, output power: 210 mW) LEDs as light source. Sample solutions were prepared, each containing 1 ml of solvent (90% v/v water-MeCN or 90% PBS-MeCN or 100% methanol for the photochemical quantum yield determination) and 0.1 mM or 0.05 mM concentration of the photoactivatable conjugates. The samples were irradiated for a given time using continuous water cooling for the light source. Then, the samples were transferred to the HPLC-UV-MS system and the chromatograms were recorded. The traces at 195 nm, 254 nm or 369 nm (dependent on the cargo moieties) and at the absorption maxima of the photoremovable protecting groups (530 nm, 570 nm or 640 nm) were compared and the corresponding peaks were integrated and compared to reference calibration sets. The possible photoproducts were identified by their corresponding m/z value and also from the UV/VIS spectra from the DAD-equipped instrument. For the dark stability experiments, the HPLC sample solutions were kept in the dark and chromatograms were recorded multiple times.
The photouncaging was evaluated by HPLC-MS using green (4 W input power, λmax=549 nm half-width: 16 nm, output power: 72 mW), orange (4 W input power, λmax=605 nm half-width: 10 nm, output power: 140 mW) and red (4 W input power, λmax=658 nm half-width: 10 nm, for Q=CMe2 output power: 210 mW) LED irradiation. For all compounds the experiments were performed in 90% water/MeCN mixtures as well as in 90% PBS/MeCN (0.1 mM concentration). In all cases, the irradiation led to the release of the model active agents with significant differences based on the photoremovable protecting group, cargo unit and the connecting chemical moiety as well as on the water content of the uncaging medium. Comparing the green light absorbing target conjugates, irradiation of 39 led to the release of 54% phenylacetic acid in 60 s (FIG. 6b), while 180 s (for 50%) was required for the same result in case of 41. Approximately 65% of phenylacetic acid was released after 180 s of irradiation with orange light from model target conjugate 41 (FIG. 6a). The current state of the art BODIPY derivative (for the structure, see the next section),^20,21 released only 12% phenylacetic acid after irradiation for 1800 s. Contrary to the general expectations that increasing the wavelength diminishes photolysis rates, the uncaging of the redshifted Q=CMe2 derivative 43 was also very effective, reaching >70% release of phenylacetic acid in 120 s after red light irradiation (FIG. 6c). The high efficiency of 43 as a red light-activatable photoremovable protecting group was also compared to a π-extended BODIPY derivative (substrate 7 in REF^21, using methanol as the solvent in a concentration of 0.1 mM), the current state of the art in this region of visible light.
Importantly, except in the case of compounds wherein the connecting chemical moiety was a carbonate moiety (i.e., compound 51, FIG. 6f), the target conjugates were stable in water as well as in PBS for 24 hours in the dark. The stability and uncaging rates of several leaving groups was also assessed. Comparing the most important functional groups (carboxylic acid, amine, phenol, alcohol) in potential active agents connected via the typical linkages in the target conjugates, the carbonate bond was the most labile (compound 51, >70% decomposition in 30 s with red light at 50% power) although the long-term dark stability was poor. None of the other model active agents were released in significant quantities, however, after 24-28 hours in the dark (for dark stability data see FIGS. 6a-6h, right side).
Using HPLC-MS, not only the appearance of the released model active agents could be monitored but also the products of photolysis were detectable. […]

[3] = Uncaging quantum yield determination relative to BODIPY reference; type: physicochemical; details: for ε × Φu, uncaging cross-section / quantum efficiency: at the wavelength in parentheses beside each value (538-660 nm); for Φu, uncaging quantum yield: calculated from active agent release; for Φu, uncaging quantum yield / Φdeg, degradation quantum yield: green light irradiation; for Φdeg, degradation quantum yield: calculated from the disappearance of the target conjugate
Method: The relative photochemical quantum yields of the uncaging reactions together with the degradation quantum yields were determined from the results of the quantitative HPLC-UV experiments. In all cases, green light irradiation was used since all target conjugates absorbed in this range as well as the reference BODIPY. The photochemical quantum yields were determined using the following equation:
[formula] • where • Φu is the photochemical quantum yield of the sample • Φu,ref is the photochemical quantum yield of the reference • k is the obtained reaction rate constant of the photoreaction of the sample • kref is the obtained reaction rate constant of the photoreaction of the reference • c is the concentration of the sample • cref is the concentration of the reference • V is the volume of the sample • Vref is the volume of the reference • a is the absorption correction factor of the sample • aref is the absorption correction factor of the reference
The absorption correction factors (a) were determined from the molar absorption coefficients and the green LED emission data obtained by the fluorimeter. […] In other words, the transmittance at each wavelength together with the emission data of the light source can be used to calculate the percentage of absorbed photons according to the following equation:
[formula] • where • T(λ) is the transmittance at each wavelength (determined from the molar absorption coefficients) • F(λ) is the LED emission at each wavelength • λmin, λmax is the LED emission range.
The rate constants of the photoreactions were determined by considering the reactions monoexponential with an initial linear phase (up to 10-20% degradation). First, the concentration vs. HPLC-UV peak were determined for each cargo moieties. […] The rate constants were determined for both the reference (with known Φu) and the sample. For reference, a commonly known BODIPY derivative was used with a similar phenylacetic acid-derived cargo unit (substrate 7 from REF^40), Φu=0.15%:
The calculated photochemical quantum yields together with uncaging cross-sections or quantum efficiencies (product of the molar absorption coefficient at a given wavelength, shown in parentheses and the photochemical quantum yield) are shown in Table 2. In the table, Φu is the photochemical quantum yield of the release; Φdeg is the photochemical quantum yield of degradation; ε×Φu is the uncaging cross-section or quantum efficiency of the release at a given wavelength in parentheses.

SK-OV-3 cells = assay: Cytotoxicity determination, MTT assay, with light irradiation and in the dark; type: cell-based, human; details: for cell viability: DARK
Method: A viability test was carried out to assess the toxicity of SN38 as well as the photoremovable protecting group-SN38 conjugates X1′-SN38 and X2′-SN38 after light irradiation and in the dark on SKOV3 cells. Cells were transferred into a 48-well plate (Thermo Fisher Scientific, 130187) (4,500 cells/well) and incubated for 20-24 h at 37° C. in a 5% CO2 atmosphere in McCoy's 5A (Modified) Medium, HEPES (Gibco 22330021) supplemented with 10% FBS (Gibco 10500-064), 1% penicillin-streptomycin (Gibco 15140-122). Cells were treated with compounds in the concentration range of 10^−11-10^−4 M for 90 min followed by light irradiation or kept in the dark at 37° C. in 5% CO2 atmosphere. After treatment and irradiation, cells were kept at 37° C. in 5% CO2 atmosphere for 72 hours. After the incubation period, supernatants were replaced with 0.5 mg/ml MTT (3-(4,5-dimethylthiazol-2-yl)-2,5-diphenyltetrazolium bromide; Sigma M5655-1G) solution (in complete DMEM: Dulbecco's modified Eagle's medium (DMEM, Gibco 41965-039), supplemented with 10% FBS (Gibco 10500-064), 1% penicillin-streptomycin (Gibco 15140-122), 1% Glutamax (Gibco 35050-061) and 1% sodium pyruvate (Life Technologies, Gibco 11360-070)) and incubated for 120 min at 37° C. in the dark. The insoluble formazan crystals were dissolved in 250 μl DMSO. Absorbance was detected at 540 nm using a Biotek Synergy 2 Cytation 3 imaging plate reader with Gen5 software version 3.08 (Biotek Winooski, VT, USA). Viability was expressed as percentage (n=3) of the readings of untreated control cells.
To determine phototoxic properties of compounds X1′-SN38 and X2′-SN38, standard MTT assays were performed on SK—OV-3 cells. To irradiate multiple specimens, an LED panel was custom-made for a 48-well plate consisting of 24 LEDs using green (4 W input power, λmax=549 nm half-width: 16 nm, output power: 72 mW), orange (4 W input power, λmax=605 nm half-width: 10 nm, output power: 140 mW) and red (4 W input power, λmax=658 nm half-width: 10 nm, for Q=CMe2 output power: 210 mW) LED irradiation. The board was specifically designed for the plates and offer water cooling to minimize heat shock to cells. Every second well can be irradiated with an individual LED. First, the cytotoxicity of the free active agent, SN38 was determined to be EC50 ^˜6 nM. Treatment of cells with the photoactivatable SN38 derivatives for 72 hours in the absence of light (without washing) produced moderate cytotoxic effects, sigificantly lowering the effectiveness of the active agent. This confirms that SN38 is a suitable candidate for light-activated prodrug applications. […] Reducing the irradiation time down to 10 s still produced significant phototoxicity in higher concentrations (see FIG. 8a for compound X2′-SN38) even assuming incomplete uncaging as a result of the substantial dark stability of compound X2′-SN38.

SMILES	λem (fluorescence emission maximum) [1]	λmax (absorption maximum) [1]	ε (molar absorption coefficient) [1]	release of phenylacetic acid [2]	ε × Φu, uncaging cross-section / quantum efficiency [3]	Φu, uncaging quantum yield [3]	Φdeg, degradation quantum yield [3]	cell viability (SK-OV-3 cells; 50 nM)	cell viability (SK-OV-3 cells; 100 nM)	cell viability (SK-OV-3 cells; 200 nM)	EC50 (SK-OV-3 cells; dark, 72 h, MTT, read-out: Dark EC50 values)
CC(OCc1ccccc1)C1=C2C=CC(=[N+]3CCCC3)C=C2C(C)(C)c2cc(N3CCCC3)ccc21.[I-] (centres unmarked) [Compound 35, 1-(10-(1-(benzyloxy)ethyl)-9,9-dimethyl-7-(pyrrolidin-1-yl)anthracen-2 (9H)-ylidene)pyrrolidin-1-ium iodide]	659 nm	635 nm	81 200 M^−1cm^−1								
CC(OC(=O)Cc1ccccc1)c1c2ccc(=O)cc-2oc2cc(N3CCCC3)ccc12 (centres unmarked) [Compound 39, 1-(3-oxo-6-(pyrrolidin-1-yl)-3H-xanthen-9-yl)ethyl 2-phenylacetate]	564 nm	538 nm	22 700 M^−1cm^−1	54%	1070 M⁻¹ cm⁻¹	4.7%	6.2%				
CC[N+]1=c2cc3c(cc2C(C)CC1(C)C)=C(C(C)OC(=O)Cc1ccccc1)c1cc2c4c(c1C3(C)C)CCCN4CCC2 (centres unmarked) [Compound 45]	680 nm	660 nm	83 800 M^−1cm^−1		1390 M⁻¹ cm⁻¹	1.6%	2.6%				
CC(OC(=O)N1CCN(c2ccccc2)CC1)C1=C2C=CC(=[N+]3CCCC3)C=C2C(C)(C)c2cc(N3CCCC3)ccc21 (centres unmarked) [Compound 49, 1-(9,9-dimethyl-10-(1-((4-phenylpiperazine-1-carbonyl)oxy)ethyl)-7-(pyrrolidin-1-yl)anthracen-2 (9H)-ylidene)pyrrolidin-1-ium]	673 nm	637 nm	75 100 M^−1cm^−1		690 M⁻¹ cm⁻¹	0.92%	1.7%				
CCc1c2c(nc3ccc(O)cc13)-c1cc3c(c(=O)n1C2)COC(=O)[C@]3(O)CC [SN38, 7-ethyl-10-hydroxycamptothecin, reference compound]								29%	27%	30%	6.2 nM
